Measured values published in patent US6737383B1, “Herbicidal oxadiazolidines” (priority 1999, dated 2004).

Legend:
purple nutsedge = experiment: Test B pre/postemergence purple nutsedge; assay type: in vivo, Cyperus rotundus
Summary of the method: (§1)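 Herbicidal effect was estimated by eye on a ten-point control scale after plants spent twelve to sixteen days in a greenhouse following soil or foliar treatment. Foliar sprays targeted plants at one to four leaves; all doses were formulated in a non-phytotoxic solvent with surfactant.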

cocklebur = experiment: Test B pre/postemergence cocklebur; assay type: in vivo, Xanthium strumarium
Summary of the method: as §1

soybean = experiment: Test B pre/postemergence soybean; assay type: in vivo, Glycine max
Summary of the method: as §1

morningglory = experiment: Test B pre/postemergence morningglory; assay type: in vivo, Ipomoea hederacea
Summary of the method: as §1

wild oat = experiment: Test B pre/postemergence wild oat; assay type: in vivo, Avena fatua
Summary of the method: as §1

blackgrass = experiment: Test B pre/postemergence blackgrass; assay type: in vivo, Alopecurus myosuroides
Summary of the method: as §1

velvetleaf = experiment: Test B pre/postemergence velvetleaf; assay type: in vivo, Abutilon theophrasti
Summary of the method: as §1

bedstraw = experiment: Test B pre/postemergence bedstraw; assay type: in vivo, Galium aparine
Summary of the method: as §1

giant foxtail = experiment: Test B pre/postemergence giant foxtail; assay type: in vivo, Setaria faberii
Summary of the method: as §1

pigweed = experiment: Test B pre/postemergence pigweed; assay type: in vivo, Amaranthus retroflexus
Summary of the method: as §1

crabgrass = experiment: Test B pre/postemergence crabgrass; assay type: in vivo, Digitaria sanguinalis
Summary of the method: as §1

rice = experiment: Test B flood test rice; assay type: in vivo, Oryza sativa
Summary of the method: (§2)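 Read-out is a visual response score from 0 (no effect) to 10 (complete control), assigned by comparison with untreated controls. Treatment was applied at the 2-leaf stage, and plants stayed in the greenhouse for twelve to sixteen days before scoring.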

wheat = experiment: Test B pre/postemergence wheat; assay type: in vivo, Triticum aestivum
Summary of the method: as §1

smallflower flatsedge = experiment: Test B flood test smallflower flatsedge; assay type: in vivo, Cyperus difformis
Summary of the method: as §2

bamyardgrass = experiment: Test B flood test barnyardgrass; assay type: in vivo, Echinochloa crus-galli
Summary of the method: as §2

surinam grass = experiment: Test B pre/postemergence surinam grass; assay type: in vivo, Brachiaria decumbens
Summary of the method: as §1

[1] = Postemergence, Rate 62 g/ha, scale 0 to 10, 0 is no effect, 10 is complete control
[2] = Postemergence, Rate 250 g/ha, scale 0 to 10, 0 no effect, 10 complete control
[3] = Preemergence, Rate 62 g/ha, scale 0 to 10, 0 is no effect, 10 is complete control
[4] = Preemergence, Rate 125 g/ha, scale 0 to 10 (0 no effect, 10 complete control)
[5] = Preemergence, Rate 250 g/ha, scale of 0 to 10 where 0 is no effect and 10 is complete control
[6] = Preemergence, Rate 500 g/ha, scale 0 (no effect) to 10 (complete control)
[7] = Rate 125 g/ha, Postemergence, scale 0 to 10, 0 no effect, 10 complete control
[8] = Rate 500 g/ha, Postemergence, 0 to 10 scale (0 no effect, 10 complete control)
[9] = Rate 125 g/ha, Postemergence section (flood test species), scale 0 to 10, 0 no effect, 10 complete control
[10] = Rate 500 g/ha, Postemergence section of Table B, 0 to 10 scale (0 no effect, 10 complete control)
[11] = flood test, listed under Postemergence, Rate 250 g/ha, scale 0 to 10, 0 no effect, 10 complete control

CCc1ccccc1-n1c(=O)on(C(=O)N(c2ccc(F)cc2)C(C)C)c1=O [Compound 34]
3: Plant response rating, Blackgrass (blackgrass; [3]) | Crabgrass plant response rating (crabgrass; [2]) | B. signalgrass plant response rating (surinam grass; [6])
7: Wild oats plant response rating (wild oat; [6]) | Bedstraw plant response rating (bedstraw; [8]) | Redroot pigweed plant response rating (pigweed; [8]) | Plant response rating, Crabgrass (crabgrass; [3]) | Plant response rating, Crabgrass (crabgrass; [4])
6: Blackgrass plant response rating (blackgrass; [2]) | Plant response rating, Blackgrass (blackgrass; [5]) | Blackgrass plant response rating (blackgrass; [6]) | Bedstraw plant response rating (bedstraw; [2]) | Plant response rating, Giant foxtail (giant foxtail; [4]) | Redroot pigweed plant response rating (pigweed; [2]) | Plant response rating, Redroot pigweed (pigweed; [5]) | Redroot pigweed plant response rating (pigweed; [6])
1: Morningglory plant response rating (morningglory; [1]) | Plant response rating, B. signalgrass (surinam grass; [4])
4: Cocklebur plant response rating (cocklebur; [8]) | Bedstraw plant response rating (bedstraw; [1]) | Bedstraw plant response rating (bedstraw; [7])
2: Morningglory plant response rating (morningglory; [7]) | Plant response rating, Wild oats (wild oat; [5]) | Blackgrass plant response rating (blackgrass; [7]) | Velvetleaf plant response rating (velvetleaf; [2]) | Velvetleaf plant response rating (velvetleaf; [6]) | Giant foxtail plant response rating (giant foxtail; [2]) | Plant response rating, Giant foxtail (giant foxtail; [3]) | Plant response rating, Redroot pigweed (pigweed; [4]) | Wheat plant response rating (wheat; [6]) | Plant response rating, B. signalgrass (surinam grass; [5])
0: Nutsedge plant response rating (purple nutsedge; [1]) | Nutsedge plant response rating (purple nutsedge; [2]) | Plant response rating, Nutsedge (purple nutsedge; [3]) | Plant response rating, Nutsedge (purple nutsedge; [4]) | Plant response rating, Nutsedge (purple nutsedge; [5]) | Nutsedge plant response rating (purple nutsedge; [6]) | Nutsedge plant response rating (purple nutsedge; [7]) | Nutsedge plant response rating (purple nutsedge; [8]) | Cocklebur plant response rating (cocklebur; [1]) | Cocklebur plant response rating (cocklebur; [2]) | Plant response rating, Cocklebur (cocklebur; [3]) | Plant response rating, Cocklebur (cocklebur; [4]) | Plant response rating, Cocklebur (cocklebur; [5]) | Cocklebur plant response rating (cocklebur; [6]) | Cocklebur plant response rating (cocklebur; [7]) | Soybean plant response rating (soybean; [1]) | Soybean plant response rating (soybean; [2]) | Plant response rating, Soybean (soybean; [3]) | Plant response rating, Soybean (soybean; [4]) | Plant response rating, Soybean (soybean; [5]) | Soybean plant response rating (soybean; [6]) | Soybean plant response rating (soybean; [7]) | Plant response rating, Morningglory (morningglory; [3]) | Plant response rating, Morningglory (morningglory; [4]) | Plant response rating, Morningglory (morningglory; [5]) | Morningglory plant response rating (morningglory; [6]) | Wild oats plant response rating (wild oat; [1]) | Wild oats plant response rating (wild oat; [2]) | Plant response rating, Wild oats (wild oat; [4]) | Wild oats plant response rating (wild oat; [7]) | Blackgrass plant response rating (blackgrass; [1]) | Velvetleaf plant response rating (velvetleaf; [1]) | Plant response rating, Velvetleaf (velvetleaf; [3]) | Plant response rating, Velvetleaf (velvetleaf; [4]) | Plant response rating, Velvetleaf (velvetleaf; [5]) | Velvetleaf plant response rating (velvetleaf; [7]) | Plant response rating, Bedstraw (bedstraw; [3]) | Plant response rating, Bedstraw (bedstraw; [4]) | Plant response rating, Bedstraw (bedstraw; [5]) | Bedstraw plant response rating (bedstraw; [6]) | Giant foxtail plant response rating (giant foxtail; [1]) | Giant foxtail plant response rating (giant foxtail; [7]) | Redroot pigweed plant response rating (pigweed; [1]) | Plant response rating, Redroot pigweed (pigweed; [3]) | Redroot pigweed plant response rating (pigweed; [7]) | Crabgrass plant response rating (crabgrass; [1]) | Crabgrass plant response rating (crabgrass; [7]) | Rice plant response rating (rice; [1]) | Rice plant response rating (rice; [9]) | Rice plant response rating (rice; [10]) | Rice plant response rating (rice; [11]) | Wheat plant response rating (wheat; [1]) | Wheat plant response rating (wheat; [2]) | Plant response rating, Wheat (wheat; [3]) | Plant response rating, Wheat (wheat; [4]) | Plant response rating, Wheat (wheat; [5]) | Wheat plant response rating (wheat; [7]) | S. Flatsedge plant response rating (smallflower flatsedge; [1]) | S. Flatsedge plant response rating (smallflower flatsedge; [9]) | S. Flatsedge plant response rating (smallflower flatsedge; [11]) | Barnyardgrass plant response rating (bamyardgrass; [1]) | Barnyardgrass plant response rating (bamyardgrass; [9]) | Barnyardgrass plant response rating (bamyardgrass; [10]) | Barnyardgrass plant response rating (bamyardgrass; [11]) | B. signalgrass plant response rating (surinam grass; [1]) | B. signalgrass plant response rating (surinam grass; [2]) | Plant response rating, B. signalgrass (surinam grass; [3]) | B. signalgrass plant response rating (surinam grass; [7]) | B. signalgrass plant response rating (surinam grass; [8])
8: Morningglory plant response rating (morningglory; [8]) | Giant foxtail plant response rating (giant foxtail; [8])
5: Morningglory plant response rating (morningglory; [2]) | Plant response rating, Blackgrass (blackgrass; [4])
10: Plant response rating, Giant foxtail (giant foxtail; [5]) | Giant foxtail plant response rating (giant foxtail; [6]) | Plant response rating, Crabgrass (crabgrass; [5]) | Crabgrass plant response rating (crabgrass; [6])
9: Blackgrass plant response rating (blackgrass; [8]) | Crabgrass plant response rating (crabgrass; [8])
